We go through 17 molecules from paper PMC3842668, “Dual-acting stapled peptides target both HIV-1 entry and assembly” (Retrovirology, 2013).

The test system of data set [1] is V120Q/A327P mutant. The data set is described as follows: Virus replication in PBMC, Env mutant. The data set is classed as cell-based, HIV-1. As to conditions: PBMC from three donors, 30 μM peptide, RT activity.
In data set [2] the test system is HIV-1 pNL4-3 (WT). The data set is classed as cell-based.
The subject of data set [3] is HIV-1 V120Q/A327P Env mutant. Type of data set: cell-based.
For data set [4], the system named is WT NL4-3. As to the kind of experiment: Virus replication in PBMC, WT. Type of data set: cell-based, HIV-1. As to conditions: PBMC from three donors, 30 μM peptide, RT activity.
The test system of data set [5] is HIV-1 pNL4-3. As to the kind of experiment: Virus assembly and release assay, Gag processing. Type of data set: cell-based. As to conditions: 293T cells transfected with pNL4-3, peptide for 16–20 h, ratio of Pr55Gag to p24. Here is the method:
This inhibition was specific to HIV-1 as the release of another lentivirus, equine infectious anemia virus (EIAV), was not inhibited. In this study we investigated whether i,i + 7 stapled CAI-derived peptides have any effect on virus release. 293T cells were transfected with the full-length HIV-1 molecular clone pNL4-3, treated with stapled peptides for 16–20 h, and metabolically labeled with [^35S]Met/Cys. The cell- and virus-associated proteins were immunoprecipitated with HIV-Ig.
Figure 6 i + 7 stapled peptides have no effect on HIV-1 release, but impair Gag processing. […] Cells were metabolically labeled with [^35S]Met/Cys for 2 h. Cells were lysed and virions were collected by ultracentrifugation. Cell and virus lysates were immunoprecipitated with HIV-Ig and subjected to SDS-PAGE. Protein band intensities were quantified by phosphorimager analysis, and HIV-1 release was calculated as the amount of virion-associated p24 relative to total (cell- plus virion-associated) Gag. (b) Accumulation of unprocessed Gag in cells was measured by calculating the ratio of Pr55^Gag to p24 in cells. P values were calculated by Student’s t-test, with P < 0.05 considered significant. N = 3, ± SD.
293T cells, plated at 3 × 10^5 cells/well in 12 well plates, were transfected with the HIV-1 molecular clone pNL4-3 [69]. […] One day posttransfection, cells were metabolically labeled with [^35S]Met/Cys for 2 h. The labeled virions were pelleted in an ultracentrifuge, and the virus and cell lysates were immunoprecipitated with pooled sera from HIV-1-infected patients (HIV-Ig, obtained from the ARP) and subjected to SDS-PAGE. Protein band intensities were quantified by phosphorimager analysis, and virus release was calculated as the amount of virion-associated Gag as a fraction of total (cell- plus virion-associated) Gag synthesized during the metabolic labeling period. Accumulation of Pr55^Gag in cells was measured by calculating the ratio of Pr55^Gag to p24 (CA).

Data set [6] deals with 293T cells.
Data set [7] relates to WT HIV-1 (NL4-3). The data set is classed as cell-based.
The subject of data set [8] is WT NL4-3. The data set is described as follows: Spreading virus replication in Jurkat T-cell line, RT activity, WT. The data set is classed as cell-based, HIV-1. Conditions: Jurkat cells transfected with pNL4-3 (WT), 37.5 μM peptide.
The target in data set [9] is T1, HIV-1 CA (Human immunodeficiency virus type 1 group M subtype B, UniProt P12493).
T1 construct: Wild-type HIV-1 CA was overexpressed and purified as previously described; made in house
As to the kind of experiment: Turbidity-based in vitro CA assembly assay. Type of data set: biochemical. Conditions: turbidity at 350 nm; for Effect on CA assembly, turbidity (in words): 50 mM NaPO4 pH 8.0; for initial rate of CA assembly: compound:CA ratio 2:1, mean ± standard deviation from three experiments, DMSO control 216 ± 6.23. As for the experimental part:
The ability of stapled peptides to disrupt CA-CA interactions was also assessed using a turbidity-based in vitro CA assembly assay. This assay is based on the observation that the turbidity of a CA-containing solution increases in proportion to the extent of assembly.
Wild-type HIV-1 CA was overexpressed and purified as previously described. […] Turbidity assays were carried out in triplicate using a Beckman spectrophotometer at a wavelength of 350 nm to monitor HIV-1 in vitro assembly conducted at ambient temperatures. Protein samples were prepared in an assembly buffer [50 mM NaPO4 pH 8.0]. In vitro assembly reactions were prepared with 250 μl of assembly buffer containing 60 μM protein. To catalyze CA assembly 250 μl of an assembly buffer containing 5M NaCl was added. The solution was mixed by agitation and transferred a cuvette for a total delay of 20 seconds. Assembly was monitored every 10 sec for the first min and every min thereafter for a total 10 min. Assembly reactions with stapled peptides were incubated in the assembly buffer for 10 min and then centrifuged for 1 min to separate any insoluble fractions before catalyzing assembly.

Data set [10] concerns MT-2 cells.
Data set [11] has as its system N-terminal and C-terminal V3 loop peptides. As to the kind of experiment: ITC binding to N-terminal and C-terminal V3 loop peptides. The arrangement: species or system HIV-1. Conditions: overlapping 15-mer V3 peptides. Here is the method: (§1) We also used ITC to measure the binding affinity of the stapled peptides to full-length cyclic V3 loop peptide.
(§2) Full-length V3 peptide (Cat# 1840), cyclic V3 peptide (Cat# 1837) and 15-mer overlapping V3 peptides (Cat# 1832, 6282, 6283, 6284, 6285, 6287, 6288, 6289, 6290 and 6291, for amino acid sequence see HIV-1 Subtype B (MN) Env Peptides - Complete Set Cat# 6451) were obtained through the NIH ARP.
(§3) For forward titration, 90 μM full-length V3 peptide, full-length cyclic V3 peptide or 90 μM 15-mer V3 peptides were titrated into 4.5 μM of stapled or linear peptides. Reference measurements were performed by titrating 90 μM full-length V3 peptide, full-length cyclic V3 peptide or 15-mer V3 peptide into buffer without peptide. For reverse titration, 90 μM stapled peptide was titrated into 4.5 μM full-length V3 peptide, full-length cyclic V3 peptide or […]. Reference measurements were performed by titrating 90 μM stapled peptide into buffer without peptide.

For data set [12], the target named is tip of V3 loop (15-mer V3 tip peptide). As to the kind of experiment: ITC binding to 15-mer V3 tip peptide. Conditions: 90 μM 15-mer V3 tip peptide titrated into 4.5 μM peptide, single-site model. On the set-up: species or system HIV-1. Here is the method:
as §1, §2, §3

Where [13] appears, read: 50 μM peptide during 2 h infection, TZM-bl cells, luciferase two days post-infection.

Read-outs that look alike come from different tables or passages of the source. Where a SMILES comes first, the peptide text is derived from it. Bridges are numbered along the chain shown (N, C = ends). [ ]: non-standard residue; d: D form. R8 = C=CCCCCCC[C@@](C)(N)C(=O)O; S5 = C=CCCC[C@](C)(N)C(=O)O

`CC[C@H](C)[C@H](NC(C)=O)C(=O)N[C@@H](CO)C(=O)N[C@@H](Cc1ccccc1)C(=O)N[C@]1(C)CCCCCCC=CCCC[C@@](C)(C(=O)N[C@@H](CCC(=O)O)C(=O)N[C@@H](CC(=O)O)C(N)=O)NC(=O)[C@H](Cc2ccc(O)cc2)NC(=O)[C@H](Cc2ccc(O)cc2)NC(=O)[C@H](CC(=O)O)NC(=O)[C@H](CC(C)C)NC(=O)[C@H](CC(C)C)NC(=O)[C@H](CCC(=O)O)NC1=O` [NYAD-66] (Ac-ISF[R8]ELLDYY[S5]ED-NH2; staple 4-11): the “virus replication (in words)” value in data set [1] is “showed some antiviral activity against the V120Q/A327P mutant”. In addition, in data set [2] (293T producer cells treated with 50 μM peptide for two days, RT-normalized virus on TZM-bl, luciferase), the “reduction in infectivity of virions produced from treated cells” value is “four-fold”. Moreover, the “fold reduction of virus infectivity, V120Q/A327P double mutant” value in data set [3] (setting [13]) is “less than 2 fold”. For the same molecule, the “virus replication (in words)” value in [4] is recorded as “strongly inhibited replication of WT NL4-3 in PBMC”. The “Accumulation of cell-associated Pr55Gag (in words)” value in [5] is recorded as “modest accumulation of cell-associated Pr55^Gag”. Besides, in data set [6], the “Cell penetration (in words)” value was “penetrate cells less efficiently than NYAD-1”. Moreover, the “fold reduction of virus infectivity, WT” value in data set [7] (setting [13]) is reported as “around 3 fold”. For the same molecule, in data set [8], the “virus replication (in words)” value is reported as “significantly delayed”. In data set [9], the “Effect on CA assembly, turbidity (in words)” value (from here on “Effect on CA assembly”) is recorded as “reduced the extent of CA assembly in a dose-dependent manner” and the “initial rate of CA assembly” value is 166 ± 18.91 mOD/min. Also, in data set [10], the “% toxicity at that dose (number in parenthesis)” value turned out to be 0% and the “CC 50 (μM ± SD) in MT-2” value is above 115 µM.
For orientation: Kd means the concentration at which binding is half-saturated. Read a high Kd as lower affinity. Consider `CC[C@H](C)[C@H](NC(C)=O)C(=O)N[C@@H](CO)C(=O)N[C@@H](Cc1ccccc1)C(=O)N[C@]1(C)CCCCCCC=CCCC[C@@](C)(C(=O)N[C@@H](CCC(=O)O)C(=O)N[C@@H](CC(=O)O)C(=O)N[C@@H](CCC(=O)O)C(N)=O)NC(=O)[C@H](Cc2ccc(O)cc2)NC(=O)[C@H](C)NC(=O)[C@H](CCC(N)=O)NC(=O)[C@H](CC(C)C)NC(=O)[C@H](Cc2c[nH]c3ccccc23)NC(=O)[C@H](CCC(=O)O)NC1=O` [NYAD-67] (Ac-ISF[R8]EWLQAY[S5]EDE-NH2; staple 4-11), for which, in data set [11], the “binding to N-terminal and C-terminal V3 loop peptides (in words)” value is given as “neither N-terminal nor C-terminal V3 loop peptides bind”. For the same molecule, the “virus replication (in words)” value in data set [1] is given as “showed some antiviral activity against the V120Q/A327P mutant”; in [4], “strongly inhibited replication of WT NL4-3 in PBMC”; in data set [8] it was “completely blocked”. Further, the “reduction in infectivity of virions produced from treated cells” value in data set [2] is listed as “two-log reduction in infectivity”. Moreover, in data set [3], the “fold reduction of virus infectivity, V120Q/A327P double mutant” value is reported as ~ 2.5 fold. In [5], the “Accumulation of cell-associated Pr55Gag (in words)” value was “modest accumulation of cell-associated Pr55^Gag”. Further, the Kd in data set [12] is 8.92 ± 1.8 µM. Besides, the “Cell penetration (in words)” value in data set [6] is recorded as “penetrate cells less efficiently than NYAD-1”. Also, the “fold reduction of virus infectivity, WT” value in data set [7] is recorded as above 40 fold. Moreover, in data set [9], the “Effect on CA assembly” value was “did not influence the rate or extent of CA assembly”. Besides, the “initial rate of CA assembly” value in [9] is reported as 205 ± 18.89 mOD/min. Moreover, the “% toxicity at that dose (number in parenthesis)” value in data set [10] came to 0%. Also, the “CC 50 (μM ± SD) in MT-2” value in data set [10] was above 107.4 µM.
As for “Ac-IRQGPKEPFRDYVDR-NH2 [NYAD-401, reference compound]”, in data set [9], the “Effect on CA assembly” value is recorded as “no observable effect on CA assembly” and the “initial rate of CA assembly” value came to 223 ± 32.5 mOD/min.
Regarding “Ac-ISF-R8-ELEDYY-S5-ESGS (sidechain bridge or staple) [NYAD-43]”, in [10], the “CC 50 (μM ± SD) in MT-2” value is above 106.6 µM.
For “Ac-ISF-R8-ELLDYY-S5-EKSGSKD-amide (sidechain bridge or staple) [NYAD-55]”, in [10], the “CC 50 (μM ± SD) in MT-2” value was above 89.7 µM.
“Ac-ISF-R8-ELLDYY-S5-ESGSKKK-amide (sidechain bridge or staple) [NYAD-44]”: the “CC 50 (μM ± SD) in MT-2” value in data set [10] was determined as 17.2 ± 1.4 µM.
On the same count and under the same terms, the value for “Ac-ISF-R8-ELLRYY-S5-R-amide (sidechain bridge or staple) [NYAD-56]” was 16.4 ± 1.2 µM; that for “Ac-ISF-R8-EWLQYY-S5-R-amide (sidechain bridge or staple) [NYAD-33]” was 9.2 ± 0.26 µM; that for “Ac-ISF-R8-QLLDYY-S5-QSGSK-amide (sidechain bridge or staple) [NYAD-46]” was 10.6 ± 0.6 µM.
Take Ac-ISFDELLDYYGESGS [NYAD-41]: the “% FAM” value in data set [6] (FACS, 293T cells, 4 μM FAM-conjugated peptide, 20 h at 37°C, serum-free media, 0.25% Trypsin-EDTA 30 min) is recorded as 1.43%.
For the molecule “Ac-R-R8-FAELLD-S5-YGESGS-amide (sidechain bridge or staple) [NYAD-63]”, the “CC 50 (μM ± SD) in MT-2” value in [10] is above 113 µM.
Turning to “Ac-RRF-R8-ELLDYY-S5-ESGS-amide (sidechain bridge or staple) [NYAD-62]”, the “CC 50 (μM ± SD) in MT-2” value in data set [10] was 15.4 ± 0.2 µM.
Still for that read-out and setting: the value for “Ac-RSF-R8-RLLDYY-S5-ESGS-amide (sidechain bridge or staple) [NYAD-61]” was 31.7 ± 1.4 µM; that for “Ac-RSFE-R8-LLDYYG-S5-SGS-amide (sidechain bridge or staple) [NYAD-65]” was above 116 µM.
For the molecule “Ac-SK-R8-ELLDYY-S5-ESGS-amide (sidechain bridge or staple) [NYAD-64]”, in [10], the “CC 50 (μM ± SD) in MT-2” value is above 109 µM.
Take “IRF-R8-QLLNYY-S5-ESGS-amide (sidechain bridge or staple) [NYAD-58]”: the “CC 50 (μM ± SD) in MT-2” value in data set [10] is 14.9 ± 1 µM.
For “ISF-R8-ELLNYY-S5-ESGS-amide (sidechain bridge or staple) [NYAD-57]”, the “CC 50 (μM ± SD) in MT-2” value in data set [10] was determined as 39.6 ± 4.4 µM.
